The supplement of paper PMC11208160

Test: recombinant UMI read abundance after kanamycin selection (control-corrected) (log10(CPM+1)); higher = more efficient recombination; extreme values may be limits of the assay; sequences stand for … in AGTGCAGAGAAAATCGGCCAGTTTTCTCTGCCTGCAGTCCGCATGCCGTGGGACCCCTTGGGTTCTAACCTGTTGCCTAGATTTATGCAGCGGACTGCCTTTCTCCCAAAGTGATAAACCGG…AGGTTGGTTTCACT; site = the 11-nt donor
Summary of the method: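 Counts of recombinant UMIs were reported as log10(CPM+1). Before that, they were converted to CPM, averaged over replicates and scaled using control-derived factors. They came from PCR across the donor–target junction after Escherichia coli carrying the pair library and target plasmid was plated on IPTG (0.07 mM) plus kanamycin, or unselected, in two replicates each.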
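Further: IS621 bridge recombinase in Escherichia coli cells against a fixed T5 target plasmid.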

Sequence	recombinant UMI read abundance (log10)
TGGCCGGCATGGACCGGTTTTCCCGGTAATCCGTATTTGAC (site TGGCCGGCTGC)	0
TGGCCGGCATGGACCGGTTTTCCCGGTAATCCGTATTTGAC (site TGGCCGGCTGG)	0
TGGCCGGCATGGACCGGTTTTCCCGGTAATCCGTATTTGAC (site TGGCCGGCTGT)	1.4
TGGCCGGCATGGACCGGTTTTCCCGGTAATCCGTATTTGGT (site TGGCCGGCTAC)	0.0121
TGGCCGGCATGGACCGGTTTTCCCGGTAATCCGTATTTGGT (site TGGCCGGCTCC)	0.022
TGGCCGGCATGGACCGGTTTTCCCGGTAATCCGTATTTGGT (site TGGCCGGCTGC)	0
TGGCCGGCATGGACCGGTTTTCCCGGTAATCCGTATTTGGT (site TGGCCGGCTTC)	0.0272
TGGCTCACATGGACCGGTTTTCCCGGTAATCCGTATTTGTG (site TGGCTCACTCA)	0.0236
TGGCTTCCATGGACCGGTTTTCCCGGTAATCCGTATTTGCT (site TGGCTTCCTAG)	0
TGGGAAACATGGACCGGTTTTCCCGGTAATCCGTATTTGGT (site TGGGAAACTAC)	1.29
TGGGCCACATGGACCGGTTTTCCCGGTAATCCGTATTTGCA (site TGGGCCACTTG)	1.45
TGGGCGGCATGGACCGGTTTTCCCGGTAATCCGTATTTGGC (site TGGACGGCTGC)	1.49
TGGGCGGCATGGACCGGTTTTCCCGGTAATCCGTATTTGGC (site TGGCCGGCTGC)	0
TGGGCGGCATGGACCGGTTTTCCCGGTAATCCGTATTTGGC (site TGGGCGGCTGC)	2.09
TGGGCGGCATGGACCGGTTTTCCCGGTAATCCGTATTTGGC (site TGGTCGGCTGC)	0
TGGGCTACATGGACCGGTTTTCCCGGTAATCCGTATTTGCA (site TGGGCTACTTG)	1.79
TGGGTAACATGGACCGGTTTTCCCGGTAATCCGTATTTGAC (site TGGGTAACTGT)	1.61
TGGGTAGCATGGACCGGTTTTCCCGGTAATCCGTATTTGGG (site TGGGTAGCTCC)	0
TGGGTGACATGGACCGGTTTTCCCGGTAATCCGTATTTGAG (site TGGGTGACTCT)	0.83
TGGTAACCATGGACCGGTTTTCCCGGTAATCCGTATTTGTG (site TGGTAACCTCA)	0.0137
TGGTCAACATGGACCGGTTTTCCCGGTAATCCGTATTTGCG (site TGGTCAACTCG)	0.0115
TGGTCCTCATGGACCGGTTTTCCCGGTAATCCGTATTTGTC (site TGGTCCTCTGA)	1.33
TGGTCGGCATGGACCGGTTTTCCCGGTAATCCGTATTTGGC (site TGGACGGCTGC)	0
TGGTCGGCATGGACCGGTTTTCCCGGTAATCCGTATTTGGC (site TGGCCGGCTGC)	0.682
TGGTCGGCATGGACCGGTTTTCCCGGTAATCCGTATTTGGC (site TGGGCGGCTGC)	0.00726

Sequence	recombinant UMI read abundance (log10)
TGGTCGGCATGGACCGGTTTTCCCGGTAATCCGTATTTGGC (site TGGTCGGCTGC)	0.268
TGGTCTGCATGGACCGGTTTTCCCGGTAATCCGTATTTGCG (site ACCGTCTCTGA)	0
TGGTGTACATGGACCGGTTTTCCCGGTAATCCGTATTTGAA (site TGGTGTACTTT)	0.131
TGGTTTCCATGGACCGGTTTTCCCGGTAATCCGTATTTGCC (site TGGTTTCCTGG)	0
TGTAAAGCATGGACCGGTTTTCCCGGTAATCCGTATTTGAC (site TGTAAAGCTGT)	0.0139
TGTACAACATGGACCGGTTTTCCCGGTAATCCGTATTTGCT (site TGTACAACTAG)	0.836
TGTACCCCATGGACCGGTTTTCCCGGTAATCCGTATTTGTA (site TGTACCCCTTA)	0.292
TGTACCCCATGGACCGGTTTTCCCGGTAATCCGTATTTGTA (site TGTCCCCCTTA)	0.253
TGTACCCCATGGACCGGTTTTCCCGGTAATCCGTATTTGTA (site TGTGCCCCTTA)	0
TGTACCCCATGGACCGGTTTTCCCGGTAATCCGTATTTGTA (site TGTTCCCCTTA)	0.00713
TGTACCGCATGGACCGGTTTTCCCGGTAATCCGTATTTGGG (site TGTACCGCTCC)	0.0251
TGTACCTCATGGACCGGTTTTCCCGGTAATCCGTATTTGGG (site TGTACCTCTCC)	0.0503
TGTACCTCATGGACCGGTTTTCCCGGTAATCCGTATTTGGT (site TGTACCTCTAC)	0.0562
TGTACGTCATGGACCGGTTTTCCCGGTAATCCGTATTTGTT (site AGTACGTCTAA)	0.00241
TGTACGTCATGGACCGGTTTTCCCGGTAATCCGTATTTGTT (site CGTACGTCTAA)	0.031
TGTACGTCATGGACCGGTTTTCCCGGTAATCCGTATTTGTT (site GGTACGTCTAA)	0.031
TGTACGTCATGGACCGGTTTTCCCGGTAATCCGTATTTGTT (site TGTACGTCTAA)	0.00887
TGTACTACATGGACCGGTTTTCCCGGTAATCCGTATTTGGT (site TGTACTACTAC)	0.00344
TGTAGAACATGGACCGGTTTTCCCGGTAATCCGTATTTGCC (site TGTAGAACTGG)	0.754
TGTAGAACATGGACCGGTTTTCCCGGTAATCCGTATTTGGG (site TGTAGAACTCC)	0.00647
TGTAGTACATGGACCGGTTTTCCCGGTAATCCGTATTTGAC (site TGTAGTACTGT)	0.509
TGTATCGCATGGACCGGTTTTCCCGGTAATCCGTATTTGCT (site TGTATCGCTAG)	1.57
TGTATTTCATGGACCGGTTTTCCCGGTAATCCGTATTTGGG (site TGTATTTCTCC)	0.402
TGTCGTCCATGGACCGGTTTTCCCGGTAATCCGTATTTGCA (site TGTCGTCCTTG)	0.616
TGTCTTCCATGGACCGGTTTTCCCGGTAATCCGTATTTGTC (site TGTCTTCCTGA)	0

Sequence	recombinant UMI read abundance (log10)
TGTGATTCATGGACCGGTTTTCCCGGTAATCCGTATTTGTT (site TGTGATTCTAA)	0
TGTTAACCATGGACCGGTTTTCCCGGTAATCCGTATTTGTC (site TGTTAACCTGA)	0
TGTTAGACATGGACCGGTTTTCCCGGTAATCCGTATTTGAG (site AGTTAGACTCT)	0.103
TGTTAGACATGGACCGGTTTTCCCGGTAATCCGTATTTGAG (site CGTTAGACTCT)	0.204
TGTTAGACATGGACCGGTTTTCCCGGTAATCCGTATTTGAG (site GGTTAGACTCT)	0.0119
TGTTAGACATGGACCGGTTTTCCCGGTAATCCGTATTTGAG (site TGTTAGACTCT)	0.233
TGTTCCGCATGGACCGGTTTTCCCGGTAATCCGTATTTGTC (site TGTTCCGCTGA)	1.06
TGTTGAGCATGGACCGGTTTTCCCGGTAATCCGTATTTGCA (site TGTTGAGCTTG)	0.98
TGTTTAGCATGGACCGGTTTTCCCGGTAATCCGTATTTGGG (site TGTTTAGCTCC)	0.00333
TTAAAGCCATGGACCGGTTTTCCCGGTAATCCGTATTTGGC (site TTAAAGCCTGC)	0
TTAATATCATGGACCGGTTTTCCCGGTAATCCGTATTTGAC (site CTAGTATCTGT)	0
TTAATATCATGGACCGGTTTTCCCGGTAATCCGTATTTGAC (site TTAATATCTGT)	1.18
TTACAAACATGGACCGGTTTTCCCGGTAATCCGTATTTGAG (site TTACAAACTCT)	2.21
TTACCCACATGGACCGGTTTTCCCGGTAATCCGTATTTGTG (site TTACCCACTCA)	0.0352
TTACGCTCATGGACCGGTTTTCCCGGTAATCCGTATTTGAT (site TTACGCTCTAT)	1.93
TTACGTGCATGGACCGGTTTTCCCGGTAATCCGTATTTGTA (site TTACGTGCTTA)	1.51
TTACGTTCATGGACCGGTTTTCCCGGTAATCCGTATTTGAG (site TTACGTTCTCT)	1.76
TTACTGTCATGGACCGGTTTTCCCGGTAATCCGTATTTGGA (site TTACTGTCTTC)	1.38
TTAGAACCATGGACCGGTTTTCCCGGTAATCCGTATTTGCC (site TTAGAACCTGG)	0
TTAGATCCATGGACCGGTTTTCCCGGTAATCCGTATTTGAG (site TTAGATCCTCT)	0.358
TTAGCAACATGGACCGGTTTTCCCGGTAATCCGTATTTGAG (site TTAGCAACTCT)	0.835
TTAGCGGCATGGACCGGTTTTCCCGGTAATCCGTATTTGTG (site TTAGCAGCTCA)	0.356
TTAGCGGCATGGACCGGTTTTCCCGGTAATCCGTATTTGTG (site TTAGCCGCTCA)	0.00441
TTAGCGGCATGGACCGGTTTTCCCGGTAATCCGTATTTGTG (site TTAGCGGCTCA)	1.51
TTAGCGGCATGGACCGGTTTTCCCGGTAATCCGTATTTGTG (site TTAGCTGCTCA)	0.0387
